One test relates to P. aeruginosa CDC-0095. Description: microbe, parasite or virus in culture. As to conditions: Pseudomonas aeruginosa, CDC0095, read-out: Minimum inhibitory concentration, P. aeruginosa CDC-0095. It counts as cell-based.
The subject of a further test is A. baumannii CDC-0036. Description: microbe, parasite or virus in culture. As to conditions: Acinetobacter baumannii. The format is cell-based.
The subject of a further test is P. aeruginosa ATCC 27853. Description: microbe, parasite or virus in culture. The format is cell-based. As to conditions: Pseudomonas aeruginosa, ATCC27853, read-out: Minimum inhibitory concentration, P. aeruginosa ATCC 27853.
Another test has as its target A. baumannii PBP2 (Acinetobacter baumannii, UniProt D0C8Z9). Description: Bocillin-FL competition binding via gel filtration, A. baumannii PBP2. Summed up:
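Enzyme was pre-incubated with rising inhibitor concentrations, then Bocillin-FL was added and incubated 15 minutes more. Bound probe was separated by gel filtration and fluorescence read. EC50 came from fitting fraction of PBP labelled versus inhibitor concentration to a Hill equation with ymin, ymax and n.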
Background: Size exclusion chromatography separates by hydrodynamic size, large species first.

The subject of a further test is P. aeruginosa CDC-0110. The experiment in a line: microbe, parasite or virus in culture. The format is cell-based. As to conditions: Pseudomonas aeruginosa, CDC0110, read-out: Minimum inhibitory concentration, P. aeruginosa CDC-0110.
Where [1] appears, read: CDC0036, read-out: Minimum inhibitory concentration (MIC), A. baumannii CDC-0036.

≈ marks a conversion by molar mass, not a printed value. Read-outs that look alike come from different tables or passages of the source. Where only a bound is given, the exact number is not on record here.

Sequence of A. baumannii PBP2 (D0C8Z9 whole entry): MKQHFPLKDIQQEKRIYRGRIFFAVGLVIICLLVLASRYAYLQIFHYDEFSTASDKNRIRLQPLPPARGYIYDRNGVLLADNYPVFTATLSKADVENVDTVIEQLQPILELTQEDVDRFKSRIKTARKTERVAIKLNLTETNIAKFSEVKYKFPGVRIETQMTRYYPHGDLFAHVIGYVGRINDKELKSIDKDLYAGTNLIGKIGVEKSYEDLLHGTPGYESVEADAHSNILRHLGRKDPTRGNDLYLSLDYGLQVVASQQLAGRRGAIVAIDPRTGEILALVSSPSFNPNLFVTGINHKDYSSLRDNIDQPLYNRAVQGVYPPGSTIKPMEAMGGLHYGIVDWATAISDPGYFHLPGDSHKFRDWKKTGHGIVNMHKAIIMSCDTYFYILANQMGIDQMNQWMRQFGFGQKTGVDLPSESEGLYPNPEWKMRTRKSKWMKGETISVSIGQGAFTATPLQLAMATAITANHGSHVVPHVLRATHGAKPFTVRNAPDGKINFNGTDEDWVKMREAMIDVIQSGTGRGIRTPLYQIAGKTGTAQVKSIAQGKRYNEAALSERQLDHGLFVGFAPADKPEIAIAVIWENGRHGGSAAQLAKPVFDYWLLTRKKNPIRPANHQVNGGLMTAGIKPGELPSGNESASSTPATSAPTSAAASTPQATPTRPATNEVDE

As for `O=C(O)c1c(F)ccc2c1OB(O)[C@@H](NC(=O)[C@H](NC(=O)N1CCN(S(=O)(=O)c3ccc(O)c(O)c3Cl)C1=O)c1ccc(P(=O)(O)O)cc1)C2` [Example 506, (R)-3-((R)-2-(3-((2-chloro-3,4-dihydroxyphenyl)sulfonyl)-2-oxoimidazolidine-1-carboxamido)-2-(4-phosphonophenyl)acetamido)-7-fluoro-2-hydroxy-3,4-dihydro-2H-benzo[e][1,2]oxaborinine-8-carboxylic acid], the MIC in the test with P. aeruginosa CDC-0095, with A. baumannii CDC-0036 (setting [1]) and in the test with P. aeruginosa ATCC 27853 was less than 1 µg/mL in each case.
A word on the EC50: it is the concentration that produces a half-maximal response. As for `O=C(O)c1c(F)ccc2c1OB(O)[C@@H](NC(=O)C(NC(=O)N1CCN(C3CCN(C(=O)Nc4cc(O)c(F)c(F)c4)CC3)C(=O)C1=O)c1cc(F)c(O)c(O)c1Cl)C2` (stereo partly drawn) [Example 488, (3R)-3-(2-(2-chloro-5-fluoro-3,4-dihydroxyphenyl)-2-(4-(1-((3,4-difluoro-5-hydroxyphenyl)carbamoyl)piperidin-4-yl)-2,3-dioxopiperazine-1-carboxamido)acetamido)-7-fluoro-2-hydroxy-3,4-dihydro-2H-benzo[e][1,2]oxaborinine-8-carboxylic acid], the MIC in the test with P. aeruginosa CDC-0095, in the test with A. baumannii CDC-0036 (setting [1]) and in the test with P. aeruginosa ATCC 27853 was 2 to 4 µg/mL (≈ 2.39 to 4.78 µM) throughout. On A. baumannii PBP2, this compound gave an EC50 of 10 to 50 µM.
In the case of `O=C(O)c1cccc2c1OB(O)[C@@H](NC(=O)[C@H](NC(=O)N1CCN(Cc3cc(F)c(O)c(O)c3Cl)C(=O)C1=O)c1ccc(P(=O)(O)O)cc1)C2` [Example 504, (R)-3-((R)-2-(4-(2-chloro-5-fluoro-3,4-dihydroxybenzyl)-2,3-dioxopiperazine-1-carboxamido)-2-(4-phosphonophenyl)acetamido)-2-hydroxy-3,4-dihydro-2H-benzo[e][1,2]oxaborinine-8-carboxylic acid], the MIC in the test with P. aeruginosa CDC-0095, with A. baumannii CDC-0036 (setting [1]) and with P. aeruginosa ATCC 27853 was less than 1 µg/mL in each case. The compound also showed an EC50 at A. baumannii PBP2 of less than 10 µM.
Take `O=C(O)c1c(F)ccc2c1OB(O)[C@@H](NC(=O)[C@H](NC(=O)N1CCN(Cc3ccc(O)c(O)c3Cl)C(=O)C1=O)c1cc(F)c(P(=O)(O)O)c(F)c1)C2` [Example 502, (R)-3-((R)-2-(4-(2-chloro-3,4-dihydroxybenzyl)-2,3-dioxopiperazine-1-carboxamido)-2-(3,5-difluoro-4-phosphonophenyl)acetamido)-7-fluoro-2-hydroxy-3,4-dihydro-2H-benzo[e][1,2]oxaborinine-8-carboxylic acid]: the MIC with P. aeruginosa CDC-0095 was 2 to 4 µg/mL (≈ 2.59 to 5.19 µM); in the test with A. baumannii CDC-0036 (setting [1]), less than 1 µg/mL; in the test on P. aeruginosa ATCC 27853, less than 1 µg/mL. Also, the EC50 at A. baumannii PBP2 was less than 10 µM.
For `O=C(O)c1c(F)ccc2c1OB(O)[C@@H](NC(=O)[C@@H](NC(=O)N1CCN(C3CCN(C(=O)c4ccc(O)cc4)CC3)C1=O)c1cc(F)c(O)c(O)c1Cl)C2` (single isomer, unassigned) [Example 462], the MIC fell in the range of 32 to 64 µg/mL (≈ 42.2 to 84.4 µM) with P. aeruginosa CDC-0095; 8 to 16 µg/mL (≈ 10.6 to 21.1 µM) in the test with P. aeruginosa CDC-0110; 32 to 64 µg/mL (≈ 42.2 to 84.4 µM) in the test on A. baumannii CDC-0036 (CDC0036, read-out: MIC, A. baumannii CDC-0036); 2 to 4 µg/mL (≈ 2.64 to 5.28 µM) in the test on P. aeruginosa ATCC 27853.
As to `O=C(O)c1cccc2c1OB(O)[C@@H](NC(=O)[C@H](NC(=O)N1CCN(S(=O)(=O)c3ccc(O)c(O)c3Cl)C1=O)c1ccc(P(=O)(O)O)cc1)C2` [Example 509, (R)-3-((R)-2-(3-((2-chloro-3,4-dihydroxyphenyl)sulfonyl)-2-oxoimidazolidine-1-carboxamido)-2-(4-phosphonophenyl)acetamido)-2-hydroxy-3,4-dihydro-2H-benzo[e][1,2]oxaborinine-8-carboxylic acid], the MIC in the test with P. aeruginosa CDC-0095, with A. baumannii CDC-0036 (setting [1]) and in the test with P. aeruginosa ATCC 27853 was less than 1 µg/mL throughout.

The record behind these values is patent US20240270762A1, “PENICILLIN-BINDING PROTEIN INHIBITORS” (priority 2021, published 2024).
